# In patent publication US4486432A, “Quinoxalinedione leukotriene release inhibitors” (Eli Lilly and Company, priority 1982, dated 1984):
# System: SRS-A release
# Test: Inhibition of SRS-A release from sensitized guinea pig lung fragments challenged with ovalbumin (bioassay on guinea pig ileum)
# Assay type: cell-based
# Settings: Cavia porcellus, read-out: Inhibition of SRS-A Release, Percent Inhibition; for inhibition at 30 µM: Drug Concentration 3 × 10^-5 M; for inhibition at 3 µM: Drug Concentration 3 × 10^-6 M; for inhibition at 10 µM: Drug Concentration 1 × 10^-5 M; for inhibition at 1 µM: Drug Concentration 1 × 10^-6 M
# Method: Male, Hartley guinea pigs, usually 1-2 weeks old were sensitized with respect to ovalbumin by intraperitoneal administration of 0.15 ml. hyperimmune serum obtained from guinea pigs actively sensitized against ovalbumin. After 2 days or more, the animals were decapitated, lungs were excised and perfused through the pulmonary artery with Krebs' bicarbonate solution of the following composition in mmoles/liter: KCl, 4.6; CaCl2.2H2 O, 1.8; KH2 PO4, 1.2; MgSO4. 7H2 O, 1.2; NaCl, 118.2; NaHCO3, 24.8; and dextrose, 10.0.Poorly perfused and bloody areas were discarded. Normal lung was cut into 1 mm. cubes with a McIlwain tissue chopper, washed with Krebs' solution and divided into 400 mg. aliquots. The fragmented tissue was then incubated at 37° C. for 15 minutes in Krebs' solution containing indomethacin to optimize SRS-A release and an appropriate concentration of experimental drug. Antigen (ovalbumin) was then added to make a final concentration of 1×10^-5 g./ml. Fifteen minutes later, the incubation medium was decanted and centrifuged at 3,000×g at 4° C. for 5 minutes. The supernatant solution was collected and assayed for SRS-A using a computerized bioassay that employs the isolated guinea pig ileum (Fleisch et al., J. Pharmacol. Exp. Ther., 209, 238-243, (1979)). Release of SRS-A in the presence of an experimental drug was compared to a control sample and the results expressed as percent inhibition of SRS-A release.
Compound,inhibition at 30 µM [%],inhibition at 3 µM [%],inhibition at 10 µM [%],inhibition at 1 µM [%],inhibition at 0.3 µM (Drug Concentration 3 × 10^-7 M) [%]
"O=C1C=C(Nc2cccc(Cl)c2)C(=O)c2nccnc21 [Example 6, 6-(3-chloroanilino)-5,8-quinoxalinedione]",71,28,–,–,–
"O=C1C=C(Nc2cccc(F)c2)C(=O)c2nccnc21 [Example 7, 6-(3-fluoroanilino)-5,8-quinoxalinedione]",81,48,67,22,6
"Cc1nc2c(nc1C)C(=O)C(Nc1ccccc1)=CC2=O [Example 8, 6-anilino-2,3-dimethyl-5,8-quinoxalinedione]",–,40,–,31,–
"O=C1C=C(Nc2ccccc2F)C(=O)c2nccnc21 [Example 5, 6-(2-fluoroanilino)-5,8-quinoxalinedione]",83,12,–,–,–
"O=C1C=C(Nc2ccccc2)C(=O)c2nccnc21 [Example 3, 6-anilino-5,8-quinoxalinedione]",75,22,–,8,–
"CN(C1=CC(=O)c2nccnc2C1=O)c1ccccc1 [Example 4, 6-(N-methylanilino)-5,8-quinoxalinedione]",59,–,18,22,–
